Experimental data reported in patent US11447512B2 (Shenzhen TargetRx, Inc., priority 2017, dated 2022).
Counter-ions that a name gives are not always drawn. Like-named read-outs stand apart in the source and are kept apart here.

Legend:
[1] = Cytotoxicity experiment of the anti-HBV test (Cell-titer Blue); type: cell-based; settings: human, six days after treatment
HIV-1 = assay: microbe, parasite or virus in culture; settings: Human immunodeficiency virus 1, MT4, 120 h, read-out: HIV activity and cytotoxicity data EC50 (nM)
Description: The data was analyzed by GraphPad Prism software, and the curve was fitted and EC50 and CC50 values were calculated. EC50 refers to the effective concentration that inhibits 50% virus production, 50% virus infectivity, or 50% virus-induced cellular effects. CC50 refers to the inhibitory concentration that reduces the cell growth or viability of uninfected cells by 50%.
Compound treatment: the test compounds and the reference compounds were 2-fold diluted with DMSO and added to the cell culture plate. The test compounds and the reference compounds were tested at 8 concentrations in duplicate.
Viral infection and cell treatment: HIV-1 and MT-4 cells were co-incubated at 37° C., in an incubator with 5% CO2 for 1 h. The infected cells were then seeded in a cell culture plate at a certain density. The final concentration of DMSO in the cell culture medium was 0.5%. The cells were incubated at 37° C., in an incubator with 5% CO2 for 5 days. The cells tested in the cytotoxicity assay were uninfected MT-4 cells, and other test conditions were with the same as that of the antiviral activity assay.
The activity assay of the cell: the cell viability was tested by using cell viability assay Reagent CellTiter-glo (Promega). The raw data was used for calculating the anti-HIV-1 activity and cytotoxicity of the Compounds.

[2] = Rat liver microsome metabolic stability; type: in vitro ADME; settings: SD, pH 7.4, 1 μM compound, 0.5 mg/mL protein, NADPH; for microsomal CLint / microsomal CLint at 1 μM: read-out: Rat liver microsome experiment CLint; for half-life / half-life at 1 μM: read-out: Rat liver microsome experiment t1/2
Description: (§1) Microsomal experiments: human liver microsomes: 0.5 mg/mL, Xenotech; rat liver microsomes: 0.5 mg/mL, Xenotech; coenzyme (NADPH/NADH): 1 mM, Sigma Life Science; magnesium chloride: 5 mM, 100 mM phosphate buffer (pH 7.4).
(§2) Preparation of stock solution: powder of Example compounds were precisely weighed and dissolved in DMSO to 5 mM.
(§3) Preparation of phosphate buffer (100 mm, pH7.4): 0.5M pre-formulated potassium dihydrogen phosphate (150 ml) and 0.5M potassium hydrogen phosphate (700 ml) were mixed well. The pH of the mixture was then adjusted to 7.4 with 0.5M potassium hydrogen phosphate solution. The resulting solution was 5-fold diluted with ultrapure water before use, and magnesium chloride was added to the solution, affording a phosphate buffer (100 mm), containing potassium phosphate (100 mM), magnesium chloride (3.3 mM), pH 7.4.
(§4) A NADPH regeneration system solution (containing 6.5 mM NADP, 16.5 mM G-6-P, 3 U/mL G-6-P D, 3.3 mM magnesium chloride) was formulated, which was placed on wet ice before use.
(§5) Preparation of stop solution: 50 ng/mL of propranolol hydrochloride and 200 ng/mL of tolbutamide (internal standard) in acetonitrile. 25057.5 μL of phosphate buffer (pH 7.4) was placed to a 50 mL centrifuge tube, and 812.5 μL human liver microsomes were added to the tube, which were mixed well to give a protein concentration of 0.625 mg/mL liver microsomes diluent. 25057.5 μL of phosphate buffer (pH 7.4) was placed to a 50 ml centrifuge tube, and 812.5 μL SD rat liver microsomes were added to the tube, which were mixed well to give a protein concentration of 0.625 mg/mL liver microsomes diluent.
(§6) Incubation of the sample: the stock solution of the corresponding compounds was diluted to 0.25 mM with 70% acetonitrile in water as a working solution for later use. 398 μL of human liver microsomes dilution or rat liver microsomes dilution was added into 96-well incubation plate (N=2), and 2 μL of 0.25 mM working solution was added to the plate, which were mixed well.
(§7) Metabolic stability assay: 300 μL of pre-chilled stop solution was added to each well of a 96-well deep-well plate and the plate was placed on ice as a stop plate. The 96-well incubation plate and NADPH regeneration system were placed in a 37° C. water bath, shaked at 100 rpm, pre-incubated for 5min. 80 μL of incubation solution was taken from each well of the incubation plate and was added to the stop plate, which were mixed well. 20 μL of NADPH regeneration system solution was supplemented into the mixture to form the 0 min sample. Then 80 μL of NADPH regeneration system solution was added to each well of the incubation plate to initiate the reaction and start timing. The reaction concentration of the corresponding compound was 1 μM, and the protein concentration was 0.5 mg/mL. At 10, 30, and 90 min, 100 μL of the reaction solution was added to the stop plate and vortexed for 3 min to quench the reaction. The stop plate was centrifuged at 5000×g at 4° C. for 10 min. 100 μL of supernatant was taken into a 96-well plate containing 100 μL of distilled water, which were mixed well. LC-MS/MS was used for sample analysis.
(§8) Data analysis: The peak area of the corresponding compounds and internal standard was detected by LC-MS/MS system, and the peak area ratio of compounds to internal standard was calculated. The slope was measured by plotting the natural log of the percentage of the remaining amount of the compounds versus time, and t1/2 and CLint were calculated according to the following formula, where V/M is equal to 1/protein concentration.

[3] = Human liver microsome metabolic stability; type: in vitro ADME; settings: pH 7.4, 1 μM compound, 0.5 mg/mL protein, NADPH; for microsomal CLint / microsomal CLint at 1 μM: read-out: Human liver microsome experiment CLint; for half-life / half-life at 1 μM: read-out: Human liver microsome experiment t1/2
Description: as §1, §2, §3, §4, §5, §6, §7, §8

HBV = assay: In vitro anti-HBV activity in HepG2.2.15 cells (HBV DNA by quantitative PCR); type: cell-based; settings: Hepatitis B virus
Description: Experimental method: anti-HBV activity of compounds was detected by Bright-Glo (Promega) luciferase.
Anti-cell viability assay: in vitro anti-hepatitis b virus activity of Example compounds was tested in HepG2.2.15 cells with TDF as a positive control compound. Cells were seeded into a 96-well plate on the first day; the compounds were added to treat the cells on the next day; and a new culture medium containing the compounds was replaced on the fifth day. On the eighth day, the supernatant was collected for DNA extraction. The content of HBV DNA was detected by quantitative PCR. Both test compound and TDF were subjected to a 3-fold serial dilution to get 8 concentration points in duplicate. The final concentration of DMSO in the culture medium was 0.5%. The formula for calculating the percentage of inhibition is as follows: Inhibition rate=(1−copy number of HBV in sample/copy number of HBV in DMSO control group)×100%
EC50 is analyzed by Graphpad Prism software (four parameter logistic equations), wherein I represents EC50≤50 nM, II represents 50 nM≤EC50≤200 nM, III represents 200 nM<EC50≤500 nM, IV represents EC50>500 nM (as shown in Table 1 below).

[4] = Cytotoxicity in uninfected MT-4 cells (CellTiter-glo); type: cell-based; settings: human, read-out: HIV activity and cytotoxicity data CC50; for CC50: 5 days
Description: The data was analyzed by GraphPad Prism software, and the curve was fitted and EC50 and CC50 values were calculated. […] CC50 refers to the inhibitory concentration that reduces the cell growth or viability of uninfected cells by 50%.

[5] = relative to TDF; cited from earlier work
[6] = relative to TDF; cited from earlier work; remark: listed apart in the source
[7] = HepG2.2.15 cells, HBV DNA in supernatant on the eighth day, read-out: HBV activity and cytotoxicity data EC50

| SMILES | CC50 [1] [nM] | EC50 (HIV-1) [nM] | microsomal CLint ([2]; microsomes) [µL/min/mg] | half-life ([2]; microsomes) [min] | microsomal CLint ([3]; microsomes) [µL/min/mg] | half-life ([3]; microsomes) [min] | EC50 (HBV; [7]) [nM] | CC50 [4] [nM] | CC50 at 5 days [4] [nM] | CC50 at 6 days ([1]; HepG2.2.15 cells) [nM] | microsomal CLint at 1 μM ([2]; rat liver microsomes) [µL/min/mg] | half-life at 1 μM ([2]; rat liver microsomes) [min] | microsomal CLint at 1 μM ([3]; human liver microsomes) [µL/min/mg] | half-life at 1 μM ([3]; human liver microsomes) [min] | further results |
| --- | --- | --- | --- | --- | --- | --- | --- | --- | --- | --- | --- | --- | --- | --- | --- |
| CCCCCCCCCCCCCCCCOCCCOP(O)(=S)CO[C@H](C)Cn1cnc2c(N)ncnc21 (stereo partly shown) [Compound T-1] | 7000 to 50000 | 5 to 20 | 5.6 | 249 | 45.6 | 3.04 | < 50 | 3000 to 10000 | – | – | – | – | – | – | – |
| CC(C)OC(=O)[C@H](C)NP(=S)(CO[C@H](C)Cn1cnc2c(N)ncnc21)Oc1ccccc1 (stereo partly drawn) [Compound T-3, 9-{(R)-2-[({[(S)-1-(isopropoxycarbonyl)ethyl]amino}phenoxythiophosphoryl)methoxy]lpropyl}adenine] | – | 5 to 20 | – | – | – | – | – | – | 3000 to 10000 | – | – | – | – | – | CC50 at 6 days [1]: > 50000 nM; microsomal CLint at 1 μM ([2]; microsomes): 82.5 µL/min/mg; half-life at 1 μM ([2]; microsomes): 16.8 min; microsomal CLint at 1 μM ([3]; microsomes): 285 µL/min/mg; half-life at 1 μM ([3]; microsomes): 4.9 min; EC50 (HBV; HepG2.2.15, read-out: HBV activity and cytotoxicity data EC50 (nM)): 50 to 200 nM |
| CCCCCCCCCCCCCCCCOCCCOP(=S)(CO[C@H](C)Cn1cnc2c(N)ncnc21)OCOC(=O)OC(C)C (stereo partly drawn) [Compound T-4, (R)-9-{2-[(hexadecyloxypropyl)(isopropylcarbonatemethyl)thiophosphorylmethoxy]propyl}adenine] | > 50000 | > 500 | 68.5 | 20.2 | 116 | 11.9 | > 500 | > 50000 | – | – | – | – | – | – | – |
| CCCCCCCCCCCCCCCCOCCCOP(=O)(CO[C@H](C)Cn1cnc2c(N)ncnc21)OCOC(=O)SC(C)C (stereo partly drawn) [Compound T-5, (R)-9-{2-[(hexadecyloxypropyl)(isopropylsulfanylcarbonyloxymethyl)phosphorylmethoxy]propyl}adenine] | – | 5 to 20 | – | – | – | – | 50 to 200 | – | > 50000 | > 50000 | 56.6 | 24.5 | 42.7 | 32.5 | – |
| CCCCCCCCCCCCCCCCOCCCOP(=S)(CO[C@H](C)Cn1cnc2c(N)ncnc21)N[C@@H](C)C(=O)OC(C)C (stereo partly shown) [Compound T-6] | 7000 to 50000 | > 500 | 9.9 | 140 | 12.9 | 107 | 200 to 500 | 3000 to 10000 | – | – | – | – | – | – | – |
| CCCCCCCCCCCCCCCCOCCCOP(=O)(CO[C@H](C)Cn1cnc2c(N)ncnc21)N[C@@H](C)C(=O)SC(C)C (stereo partly shown) [Compound T-7] | – | < 5 | – | – | – | – | 50 to 200 | – | 3000 to 10000 | 7000 to 50000 | 50.8 | 27.3 | 84.4 | 16.4 | – |
| CC(=O)SCCOP(=O)(CO[C@H](C)Cn1cnc2c(N)ncnc21)OCOC(=O)OC(C)C (stereo partly drawn) [Compound T-8, (R)-9-{2-[(acetylsulfanylethyl)(isopropylcarbonatemethyl)phosphorylmethoxy]propyl}adenine] | – | 20 to 100 | – | – | – | – | 200 to 500 | – | 10000 to 50000 | > 50000 | 92.7 | 14.9 | 84.1 | 16.5 | – |
| CC(C)OC(=O)[C@H](C)N[P@](=O)(CO[C@H](C)Cn1cnc2c(N)ncnc21)Oc1ccccc1 [TAF, Tenofovir Alafenamide Fumarate] | – | – | – | – | – | – | – | – | – | – | – | – | – | – | concentration of TFV in immune cells metabolized by TAF, higher than that of TDF [5]: 4 times; concentration of TFV in plasma metabolized by TAF, lower than that of TDF [6]: 90% |
